Data on three compounds can be found in patent publication US20110275679A1, “FLUPIRTINE HYDROCHLORIDE MALEIC ACID COCRYSTAL” (Bionevia Pharmaceuticals, Inc., priority 2008, published 2011).

Series [1] can be described thus: Intrinsic dissolution in water at 37° C. (Woods apparatus pellet, UV absorbance at 343 nm). It is filed as physicochemical. The method, then:
Intrinsic Dissolution: Pellets of approximately 200 mg were pressed at 3000 lbs. for 1 minute in a standard Woods apparatus, with a surface area of 0.5 cm^2. One pellet was tested for each material. The samples were rotated in a VanKel dissolution apparatus, with automated sampling, at 100 RPM in 900 mL of water at 37° C. Aliquots were taken every two minutes and not filtered prior to analysis. […] A wavelength of approximately 343 nm was chosen for the cocrystal to avoid potential interference from maleic acid. To determine the rate of dissolution of each material, a plot was generated of the absorbance over time for each material. From this plot, a linear region was chosen from the initial dissolution period of each material. Concentrations were plotted versus time for the regions. A straight-line was fit to the data for each material. The slope of these lines provides the dissolution rate for each of the materials, expressed as [μg/mL]/min. The rates were not normalized for the surface area of the pellet. Aliquots of the dissolution medium were removed manually at the end of the run and analyzed by UV spectrophotometry, and the remainder of the pellets were recovered for XRPD analysis. FIG. 2-3 depicts the UV absorbance (at 343 nm) vs. time curves for the intrinsic dissolution experiment on flupirtine maleate in water at 37° C. […] Intrinsic dissolution experiments were performed under sink conditions in water at 37° C. […] The intrinsic dissolution rate of the 1:1 flupirtine hydrochloride maleic acid cocrystal was ˜0.21 μg/mL/min. There appeared to be a slow chemical change occurring in the dissolution medium. The solid recovered from the intrinsic dissolution experiment was analyzed by XRPD and determined to correspond to a mixture of the flupirtine hydrochloride maleic acid cocrystal and a small amount of an unidentified material.

For series [2] the following is noted: in man; cited from earlier work.
For series [3] the following is noted: cited from earlier work.
Where [4] appears, read: water, 37° C., 100 RPM, 900 mL, 0.5 cm^2 pellet, not normalized for surface area.

Structures can show the parent of a compound that is named as a salt.

`CCOC(=O)Nc1ccc(NCc2ccc(F)cc2)nc1N.Cl.O=C(O)C=CC(=O)O`: the intrinsic dissolution rate is ~0.21 µg/mL/min in series [1] (sink conditions in water at 37° C.) and 0.21 [μg/mL]/min in series [1] (setting [4]).

In the case of `CCOC(=O)Nc1ccc(NCc2ccc(F)cc2)nc1N` [flupirtine, 2-amino-3-carbethoxyamino-6-(p-fluorobenzylamino)pyridine], the “time to maximum plasma concentration (tmax)” value in series [2] is 2 h.

In the case of `CCOC(=O)Nc1ccc(NCc2ccc(F)cc2)nc1N` [flupirtine maleate], in series [1] (setting [4]), the intrinsic dissolution rate was 0.088 [μg/mL]/min. For the same compound, the “aqueous solubility as indicated by low absorbance values in the intrinsic dissolution experiment” value in series [1] (water, 37° C., UV absorbance at 343 nm) is “poor aqueous solubility”. Besides, the solubility in water entry in series [3] is “insoluble in water”.
